Consider 17 compounds from patent US12043632B2, “6-heteroaryloxy benzimidazoles and azabenzimidazoles as JAK2 inhibitors” (Ajax Therapeutics, Inc., priority 2020, dated 2024).

Structures are written as SMILES.

T1 sequence (O60674 849-1124 Y1007F/Y1008F limits assumed): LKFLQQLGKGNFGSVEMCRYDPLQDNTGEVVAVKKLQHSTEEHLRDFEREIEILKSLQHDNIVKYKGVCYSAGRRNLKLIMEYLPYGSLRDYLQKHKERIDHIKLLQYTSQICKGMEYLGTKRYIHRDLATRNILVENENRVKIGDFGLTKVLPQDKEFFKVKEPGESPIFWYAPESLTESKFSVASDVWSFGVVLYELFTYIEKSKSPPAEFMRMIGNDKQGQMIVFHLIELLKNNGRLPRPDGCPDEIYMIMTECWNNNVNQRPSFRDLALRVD

This test has as its target T1, JAK2 (JH1domain-catalytic, Y1007F,Y1008F) kinase (Homo sapiens, UniProt O60674, Y1007F/Y1008F).
T1 construct: JAK2 (JH1domain-catalytic, Y1007F,Y1008F) kinase was expressed as N-terminal fusion; made in house; host or cells: transiently transfected HEK293 cells
The test can be described thus: JAK2 JH1 Domain Binding Assay. As to conditions: qPCR readout. For orientation: In qPCR the cycle at which signal appears reflects the starting amount.
Broadly, the Kd is the constant that tells how readily two partners part at equilibrium. Low readings indicate higher affinity, high ones lower affinity. In turn, `Cn1c(Nc2cc(C(F)(F)F)cn([C@H]3C[C@H](O)C3)c2=O)nc2ncc(Oc3cnn4cccc(F)c34)c(Cl)c21` [Example I-295, trans-3-((7-chloro-6-((4-fluoropyrazolo[1,5-a]pyridin-3-yl)oxy)-1-methyl-1H-imidazo[4,5-b]pyridin-2-yl)amino)-1-(3-hydroxycyclobutyl)-5-(trifluoromethyl)pyridin-2(1H)-one] returned a Kd of 10 to 50 nM.

Compound `Cn1cc(C(F)(F)F)cc(Nc2nc3ncc(Oc4cnc5[nH]c(C6CC6)cc5c4)c(C#N)c3n2C)c1=O` [Example I-296, 6-((2-cyclopropyl-1H-pyrrolo[2,3-b]pyridin-5-yl)oxy)-1-methyl-2-((1-methyl-2-oxo-5-(trifluoromethyl)-1,2-dihydropyridin-3-yl)amino)-1H-imidazo[4,5-b]pyridine-7-carbonitrile] displayed a Kd of 10 to 50 nM.

For the compound `Cn1c(Nc2cc(C(F)(F)F)cn([C@H]3C[C@H](O)C3)c2=O)nc2ncc(Oc3cnn4cccc(F)c34)c(C#N)c21` [Example I-297, trans-6-((4-fluoropyrazolo[1,5-a]pyridin-3-yl)oxy)-2-((1-(3-hydroxycyclobutyl)-2-oxo-5-(trifluoromethyl)-1,2-dihydropyridin-3-yl)amino)-1-methyl-1H-imidazo[4,5-b]pyridine-7-carbonitrile], the Kd is under 10 nM.

As to `Cn1c(Nc2ccc(CN3CCCOCC3)c(C(F)(F)F)c2)nc2ncc(Oc3cnn4ccncc34)c(Cl)c21` [Example I-298, N-(4-((1,4-oxazepan-4-yl)methyl)-3-(trifluoromethyl)phenyl)-7-chloro-1-methyl-6-(pyrazolo[1,5-a]pyrazin-3-yloxy)-1H-imidazo[4,5-b]pyridin-2-amine], the Kd was under 10 nM.

For `COc1n[nH]c2ncc(Oc3cnc4nc(Nc5cc(C(F)(F)F)cn(C)c5=O)n(C)c4c3C#N)cc12` [Example I-299, 6-((3-methoxy-1H-pyrazolo[3,4-b]pyridin-5-yl)oxy)-1-methyl-2-((1-methyl-2-oxo-5-(trifluoromethyl)-1,2-dihydropyridin-3-yl)amino)-1H-imidazo[4,5-b]pyridine-7-carbonitrile], the Kd was under 10 nM.

In the case of `Cn1cc(C(F)(F)F)cc(Nc2nc3ncc(Oc4cnc5[nH]cc(C#N)c5c4)c(C#N)c3n2C)c1=O` [Example I-300, 6-((3-cyano-1H-pyrrolo[2,3-b]pyridin-5-yl)oxy)-1-methyl-2-((1-methyl-2-oxo-5-(trifluoromethyl)-1,2-dihydropyridin-3-yl)amino)-1H-imidazo[4,5-b]pyridine-7-carbonitrile], the Kd lay in the range of 50 to 1000 nM.

The compound `CCN1CCCN(Cc2ccc(Nc3nc4ncc(Oc5cnn6ccncc56)c(Cl)c4n3C)cc2C(F)(F)F)CC1` [Example I-301, 7-chloro-N-(4-((4-ethyl-1,4-diazepan-1-yl)methyl)-3-(trifluoromethyl)phenyl)-1-methyl-6-(pyrazolo[1,5-a]pyrazin-3-yloxy)-1H-imidazo[4,5-b]pyridin-2-amine] returned a Kd of under 10 nM.

With `CNc1ccc2c(Oc3cnc4nc(Nc5cc(C(F)(F)F)cn(C)c5=O)n(C)c4c3C#N)cnn2c1` [Example I-302, 1-methyl-2-((1-methyl-2-oxo-5-(trifluoromethyl)-1,2-dihydropyridin-3-yl)amino)-6-((6-(methylamino)pyrazolo[1,5-a]pyridin-3-yl)oxy)-1H-imidazo[4,5-b]pyridine-7-carbonitrile], the Kd fell in the range of 10 to 50 nM.

In turn, `CNc1ccc2c(Oc3cnc4nc(Nc5cc(C(F)(F)F)cn(C)c5=O)n(C)c4c3Cl)cnn2c1` [Example I-303, 3-((7-chloro-1-methyl-6-((6-(methylamino)pyrazolo[1,5-a]pyridin-3-yl)oxy)-1H-imidazo[4,5-b]pyridin-2-yl)amino)-1-methyl-5-(trifluoromethyl)pyridin-2(1H)-one] returned a Kd of under 10 nM.

In the case of `CNc1cn2ncc(Oc3cnc4nc(Nc5cc(C(F)(F)F)cn(C)c5=O)n(C)c4c3Cl)c2cn1` [Example I-304, 3-((7-chloro-1-methyl-6-((6-(methylamino)pyrazolo[1,5-a]pyrazin-3-yl)oxy)-1H-imidazo[4,5-b]pyridin-2-yl)amino)-1-methyl-5-(trifluoromethyl)pyridin-2(1H)-one], the dissociation constant (Kd) is under 10 nM.

`CNc1cn2ncc(Oc3cnc4nc(Nc5cc(CN6CC[C@H](OC)C6)cc(C(F)(F)F)c5)n(C)c4c3Cl)c2cn1` [Example I-307, (S)-7-chloro-N-(3-((3-methoxypyrrolidin-1-yl)methyl)-5-(trifluoromethyl)phenyl)-1-methyl-6-((6-(methylamino)pyrazolo[1,5-a]pyrazin-3-yl)oxy)-1H-imidazo[4,5-b]pyridin-2-amine] displayed a Kd of 50 to 1000 nM.

For the compound `CNc1cn2ncc(Oc3cnc4nc(Nc5cc(CN6CC[C@@H](OC)C6)cc(C(F)(F)F)c5)n(C)c4c3Cl)c2cn1` [Example I-308, (R)-7-chloro-N-(3-((3-methoxypyrrolidin-1-yl)methyl)-5-(trifluoromethyl)phenyl)-1-methyl-6-((6-(methylamino)pyrazolo[1,5-a]pyrazin-3-yl)oxy)-1H-imidazo[4,5-b]pyridin-2-amine], the Kd fell in the range of 10 to 50 nM.

With `CNc1cn2ncc(Oc3cnc4nc(Nc5nn6c(c5F)COC(C)(C)C6)n(C)c4c3Cl)c2cn1` [Example I-309, N-(7-chloro-1-methyl-6-((6-(methylamino)pyrazolo[1,5-a]pyrazin-3-yl)oxy)-1H-imidazo[4,5-b]pyridin-2-yl)-3-fluoro-6,6-dimethyl-6,7-dihydro-4H-pyrazolo[5,1-c][1,4]oxazin-2-amine], the Kd is under 10 nM.

Consider `CNc1cn2ncc(Oc3cnc4nc(Nc5cc(C(F)(F)F)n(C6CC7(COC7)C6)n5)n(C)c4c3Cl)c2cn1` [Example I-310, N-(1-(2-oxaspiro[3.3]heptan-6-yl)-5-(trifluoromethyl)-1H-pyrazol-3-yl)-7-chloro-1-methyl-6-((6-(methylamino)pyrazolo[1,5-a]pyrazin-3-yl)oxy)-1H-imidazo[4,5-b]pyridin-2-amine], for which the Kd lay in the range of 50 to 1000 nM.

In the case of `CNc1cn2ncc(Oc3cnc4nc(Nc5cc6c(c(C(F)(F)F)c5)C(C)(C)N(C)C6=O)n(C)c4c3Cl)c2cn1` [Example I-311, 6-((7-chloro-1-methyl-6-((6-(methylamino)pyrazolo[1,5-a]pyrazin-3-yl)oxy)-1H-imidazo[4,5-b]pyridin-2-yl)amino)-2,3,3-trimethyl-4-(trifluoromethyl)isoindolin-1-one], the Kd fell in the range of 10 to 50 nM.

The compound `CNc1cn2ncc(Oc3cnc4nc(Nc5cc(C6CC6)cn(C)c5=O)n(C)c4c3Cl)c2cn1` [Example I-312, 3-((7-chloro-1-methyl-6-((6-(methylamino)pyrazolo[1,5-a]pyrazin-3-yl)oxy)-1H-imidazo[4,5-b]pyridin-2-yl)amino)-5-cyclopropyl-1-methylpyridin-2(1H)-one] had a Kd of under 10 nM.

As for `CNc1cn2ncc(Oc3cnc4nc(Nc5cc(C(F)(F)F)cn(C(C)C)c5=O)n(C)c4c3Cl)c2cn1` [Example I-313, 3-((7-chloro-1-methyl-6-((6-(methylamino)pyrazolo[1,5-a]pyrazin-3-yl)oxy)-1H-imidazo[4,5-b]pyridin-2-yl)amino)-1-isopropyl-5-(trifluoromethyl)pyridin-2(1H)-one], the Kd was under 10 nM.
